From US10287268B2, “Imidazolyl kinase inhibitors and uses thereof” (Dana-Farber Cancer Institute, Inc., priority 2014, dated 2019)

What was measured:
Format in all cases: biochemical
HCK = HCK (Homo sapiens (Human), UniProt P08631); assay: Protein kinase IC50 determination (method developed by Invitrogen Technology); settings: concentration of ATP: Km for ATP
Method: (§1) In some experiments, inhibitory activities of the compounds described herein against select protein kinases were determined as IC50 values (e.g., IC50 values in Table 3) using methods known in the art (e.g., the method developed by Invitrogen Technology).

BTK [1] = target: T1, BTK (Homo sapiens (Human), UniProt Q06187); assay: as above; settings: concentration of ATP: Km for ATP
T1 sequence (Q06187 whole entry): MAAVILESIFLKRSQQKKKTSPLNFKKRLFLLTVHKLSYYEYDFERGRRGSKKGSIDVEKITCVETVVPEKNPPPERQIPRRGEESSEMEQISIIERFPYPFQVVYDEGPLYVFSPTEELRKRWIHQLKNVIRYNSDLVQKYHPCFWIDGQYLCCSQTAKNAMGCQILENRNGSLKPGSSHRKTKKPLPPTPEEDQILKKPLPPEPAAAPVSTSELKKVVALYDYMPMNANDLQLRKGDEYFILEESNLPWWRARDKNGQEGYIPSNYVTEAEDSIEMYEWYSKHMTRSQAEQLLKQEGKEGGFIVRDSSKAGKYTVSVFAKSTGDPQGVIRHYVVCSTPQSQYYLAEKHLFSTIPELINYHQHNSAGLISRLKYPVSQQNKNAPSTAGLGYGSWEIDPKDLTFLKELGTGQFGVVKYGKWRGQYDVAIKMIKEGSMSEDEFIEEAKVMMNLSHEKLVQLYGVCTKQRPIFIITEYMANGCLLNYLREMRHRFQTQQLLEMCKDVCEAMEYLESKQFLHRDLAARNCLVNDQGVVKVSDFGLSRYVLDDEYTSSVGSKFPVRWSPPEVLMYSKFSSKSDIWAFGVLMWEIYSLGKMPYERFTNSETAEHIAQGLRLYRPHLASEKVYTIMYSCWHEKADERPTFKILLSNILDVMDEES
Method: as §1

FGF-R1 = FGF-R1 (Homo sapiens (Human), UniProt P11362); assay: Radiometric [γ-32P]ATP protein kinase assay (Hastie et al.), % activity vs DMSO control; settings: read-out: Activity of the protein kinase when treated with compound I-1 (% control)
Sequence of FGF-R1 (P11362 22-822): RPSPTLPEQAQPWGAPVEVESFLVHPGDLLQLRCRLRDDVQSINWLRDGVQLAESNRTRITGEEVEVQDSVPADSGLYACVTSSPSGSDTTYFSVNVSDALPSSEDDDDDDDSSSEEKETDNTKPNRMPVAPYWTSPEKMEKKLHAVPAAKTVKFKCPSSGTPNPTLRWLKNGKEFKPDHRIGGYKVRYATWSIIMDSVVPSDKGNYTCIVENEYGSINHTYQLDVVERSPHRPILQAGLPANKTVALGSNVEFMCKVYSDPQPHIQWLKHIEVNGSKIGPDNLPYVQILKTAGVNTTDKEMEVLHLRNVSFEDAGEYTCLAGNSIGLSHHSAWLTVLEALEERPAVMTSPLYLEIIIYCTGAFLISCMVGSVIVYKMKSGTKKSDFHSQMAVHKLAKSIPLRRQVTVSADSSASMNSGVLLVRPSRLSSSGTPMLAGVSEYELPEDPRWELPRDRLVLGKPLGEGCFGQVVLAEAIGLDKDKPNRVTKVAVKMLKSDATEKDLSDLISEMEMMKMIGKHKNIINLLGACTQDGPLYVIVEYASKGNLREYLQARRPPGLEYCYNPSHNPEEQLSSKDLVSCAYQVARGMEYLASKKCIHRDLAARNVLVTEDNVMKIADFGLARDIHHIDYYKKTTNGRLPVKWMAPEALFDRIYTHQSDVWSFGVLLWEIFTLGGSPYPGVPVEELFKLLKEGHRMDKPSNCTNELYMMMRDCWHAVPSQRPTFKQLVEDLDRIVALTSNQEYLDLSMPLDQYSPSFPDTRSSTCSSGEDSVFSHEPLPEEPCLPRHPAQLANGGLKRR
Method: (§2) In another set of experiments, the activities of the compounds described herein against various protein kinases were determined according to the methods reported in Hastie et al., Nature Protocols, 2006, 1, 968-971.
(§3) This buffer consisted of 50 mM Tris-HCl, pH 7.5, 0.1 mM EGTA, 1 mg ml^−1 bovine serum albumin and 0.1% (vol/vol) 2-mercaptoethanol.
(§4) An assay buffer of 500 mM Tris-HCl, pH 7.5, 1 mM EGTA, and 100 mM magnesium acetate was used for assay of a wide variety of protein kinases. In some experiments, other cofactors were included (e.g., calcium ions and calmodulin were included for assay of calcium-calmodulin-dependent protein kinases).
(§5) The specific activity of the [γ-^32P] ATP solution was 1×10^5 to 1×10^6 c.p.m. per nmol depending on what was needed to produce an optimal signal/noise ratio. Stocks of nonradioactive (“cold”) ATP were dissolved in 10 mM HEPES, and the pH of the resulting stock solutions was adjusted to 7.4. To measure the concentration of ATP, a sample of such a stock solution was diluted to 20 μM, and the absorbance of the diluted sample was measured at 259 nm. The absorbance of a 20 μM stock solution of ATP at 259 nm was about 0.31. The 1-mM solution of cold ATP was “spiked” with [γ-^32P] ATP to produce a radioactivity of 1×10^5 to 1×10^6 c.p.m. per nmol.
(§6) 1) The number of assay samples needed was determined based on, e.g., the following considerations: (i) each condition was assayed in duplicate; (ii) two controls containing peptide or protein substrate and ATP but no protein kinase were included to assess contamination by any free ATP not incorporated into substrate, alongside two controls lacking a peptide or protein substrate but containing ATP and protein kinase to correct for any incorporation of phosphate into the kinase itself (e.g., autophosphorylation); and (iii) a maximum of 40 samples were assayed manually at one time by a single person. Microcentrifuge tubes were label distinctly and were placed on ice.
(§7) 2) Suspend a wire mesh basket in a beaker containing a magnetic stir bar and not less than 5 ml of 75 mM phosphoric acid per assay sample or a minimum volume of 100 ml. Place this on a magnetic stirrer behind a plexiglass shield.
(§8) 3) Label 2 cm×2 cm squares of phosphocellulose paper corresponding to the samples to be pipetted into each microcentrifuge tube. Label the phosphocellulose paper using pencil, which was not affected by the solvents used to wash the papers at the end of the assay.
(§9) 4) Dilute the protein kinase in enzyme dilution buffer and place on ice.
(§10) 5) Pipette 5 μl of 10× concentrated assay buffer, 5 μl peptide or protein substrate (the two “no-substrate” control tubes had 5 μl water added instead of peptide or protein substrate), and 30 μl distilled water into each tube. Keep the tubes on ice.
(§11) 6) Add 5 μl diluted protein kinase to each tube, except for the two “no-enzyme” control tubes, which had 5 μl enzyme dilution buffer added, and still keeping the tubes on ice. In some cases, premixed “cocktails” of assay components were prepared containing peptide or protein substrate, assay buffer, and distilled water to limit the number of additions to each assay tube.
(§12) 7) Insert each tube into the water bath at intervals of 15 s to allow the assay mixture to reach 30° C. Begin the protein kinase reactions by adding 5 μl of 1 mM [γ-^32P]ATP to each tube at intervals of 15 s. Close each tube, vortex for 1 s to mix the contents and immediately replace in a rack in the water bath. Incubate for 10 min at 30° C.
(§13) 8) At 10 min after the addition of ATP, remove each tube from the water bath at intervals of 15 s.
(§14) 9) “Spot” […] of each reaction mixture onto the center of a 2-cm square of P81 phosphocellulose paper using forceps to handle the paper squares. Immediately immerse the paper into the 75 mM phosphoric acid contained in the wire mesh basket suspended in the beaker that is being stirred continuously with a magnetic stirrer. This was be done within 1 to 2 s, as this step terminated the reaction. […]

VEG-FR = assay: as above
Method: as §2, §3, §4, §5, §6, §7, §8, §9, §10, §11, §12, §13, §14

CSK = CSK (Homo sapiens (Human), UniProt P41240); assay: as above; settings: read-out: Activity of the protein kinase when treated with compound I-1 (% control)
Sequence of CSK (P41240 whole entry): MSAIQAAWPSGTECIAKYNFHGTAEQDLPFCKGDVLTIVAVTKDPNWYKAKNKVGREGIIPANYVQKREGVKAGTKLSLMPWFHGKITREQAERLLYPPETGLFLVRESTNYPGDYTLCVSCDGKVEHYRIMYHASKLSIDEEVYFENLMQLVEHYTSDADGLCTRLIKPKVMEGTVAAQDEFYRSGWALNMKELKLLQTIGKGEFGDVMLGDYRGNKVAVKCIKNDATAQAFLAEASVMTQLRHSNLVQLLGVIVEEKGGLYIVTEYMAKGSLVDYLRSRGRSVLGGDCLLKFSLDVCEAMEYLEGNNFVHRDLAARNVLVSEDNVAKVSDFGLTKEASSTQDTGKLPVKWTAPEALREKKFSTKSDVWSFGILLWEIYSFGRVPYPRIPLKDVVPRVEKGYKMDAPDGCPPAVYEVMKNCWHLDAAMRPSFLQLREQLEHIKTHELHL
Method: as §2, §3, §4, §5, §6, §7, §8, §9, §10, §11, §12, §13, §14

EPH-A2 = EPH-A2 (Homo sapiens (Human), UniProt P29317); assay: as above; settings: read-out: Activity of the protein kinase when treated with compound I-1 (% control)
Method: as §2, §3, §4, §5, §6, §7, §8, §9, §10, §11, §12, §13, §14

BRK = BRK (Homo sapiens (Human), UniProt Q13882); assay: as above; settings: read-out: Activity of the protein kinase when treated with compound I-1 (% control)
Sequence of BRK (Q13882 whole entry): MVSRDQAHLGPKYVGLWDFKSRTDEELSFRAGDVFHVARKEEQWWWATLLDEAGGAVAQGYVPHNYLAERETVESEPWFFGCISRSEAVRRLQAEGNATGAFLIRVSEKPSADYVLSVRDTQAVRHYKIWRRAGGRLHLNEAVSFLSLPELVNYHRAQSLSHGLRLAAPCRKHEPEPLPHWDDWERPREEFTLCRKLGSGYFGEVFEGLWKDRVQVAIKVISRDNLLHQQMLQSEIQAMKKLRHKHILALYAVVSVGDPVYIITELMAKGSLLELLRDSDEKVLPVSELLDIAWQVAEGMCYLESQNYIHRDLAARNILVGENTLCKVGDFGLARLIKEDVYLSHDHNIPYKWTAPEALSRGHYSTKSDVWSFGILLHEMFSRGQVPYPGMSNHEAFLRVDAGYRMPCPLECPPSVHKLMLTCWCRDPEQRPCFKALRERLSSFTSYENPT
Method: as §2, §3, §4, §5, §6, §7, §8, §9, §10, §11, §12, §13, §14

YES1 = YES1 (Homo sapiens (Human), UniProt P07947); assay: as above; settings: read-out: Activity of the protein kinase when treated with compound I-1 (% control)
Sequence of YES1 (P07947 whole entry): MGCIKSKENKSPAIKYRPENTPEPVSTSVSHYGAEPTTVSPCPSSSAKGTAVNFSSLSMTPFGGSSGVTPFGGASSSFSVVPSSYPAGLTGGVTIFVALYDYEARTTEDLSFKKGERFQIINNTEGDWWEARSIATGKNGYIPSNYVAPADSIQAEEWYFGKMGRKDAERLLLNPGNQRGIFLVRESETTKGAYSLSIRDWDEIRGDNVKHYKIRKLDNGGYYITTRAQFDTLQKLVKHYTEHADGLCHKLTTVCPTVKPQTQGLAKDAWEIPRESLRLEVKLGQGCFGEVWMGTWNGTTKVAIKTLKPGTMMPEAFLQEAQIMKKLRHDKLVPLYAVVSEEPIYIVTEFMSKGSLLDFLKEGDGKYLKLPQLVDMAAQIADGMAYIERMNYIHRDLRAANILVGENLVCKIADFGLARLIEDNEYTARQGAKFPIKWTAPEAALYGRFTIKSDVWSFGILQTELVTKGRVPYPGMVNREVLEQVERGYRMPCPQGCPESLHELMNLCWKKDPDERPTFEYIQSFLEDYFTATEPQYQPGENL
Method: as §2, §3, §4, §5, §6, §7, §8, §9, §10, §11, §12, §13, §14

ABL = ABL (Homo sapiens (Human), UniProt P00519); assay: as above; settings: read-out: Activity of the protein kinase when treated with compound I-1 (% control)
Method: as §2, §3, §4, §5, §6, §7, §8, §9, §10, §11, §12, §13, §14

Src = Src (Homo sapiens (Human), UniProt P12931); assay: as above; settings: read-out: Activity of the protein kinase when treated with compound I-1 (% control)
Sequence of Src (P12931 whole entry): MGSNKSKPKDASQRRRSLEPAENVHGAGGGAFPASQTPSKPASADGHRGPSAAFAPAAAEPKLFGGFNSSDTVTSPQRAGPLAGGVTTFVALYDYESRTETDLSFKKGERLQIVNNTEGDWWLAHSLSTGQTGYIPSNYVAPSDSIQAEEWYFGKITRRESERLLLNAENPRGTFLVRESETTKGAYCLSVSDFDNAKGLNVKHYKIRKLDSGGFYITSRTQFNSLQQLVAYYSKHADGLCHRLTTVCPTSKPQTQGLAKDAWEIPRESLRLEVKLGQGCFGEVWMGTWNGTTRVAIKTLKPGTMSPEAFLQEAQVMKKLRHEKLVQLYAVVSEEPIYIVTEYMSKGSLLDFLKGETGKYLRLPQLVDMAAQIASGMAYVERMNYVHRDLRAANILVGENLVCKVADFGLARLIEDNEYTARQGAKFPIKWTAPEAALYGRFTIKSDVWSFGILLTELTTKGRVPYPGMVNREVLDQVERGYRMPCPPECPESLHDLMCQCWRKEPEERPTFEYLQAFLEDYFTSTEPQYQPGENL
Method: as §2, §3, §4, §5, §6, §7, §8, §9, §10, §11, §12, §13, §14

HER4 = HER4 (Homo sapiens (Human), UniProt Q15303); assay: as above; settings: read-out: Activity of the protein kinase when treated with compound I-1 (% control)
Method: as §2, §3, §4, §5, §6, §7, §8, §9, §10, §11, §12, §13, §14

TIE2 = TIE2 (Homo sapiens (Human), UniProt Q02763); assay: as above; settings: read-out: Activity of the protein kinase when treated with compound I-1 (% control)
Method: as §2, §3, §4, §5, §6, §7, §8, §9, §10, §11, §12, §13, §14

DDR2 = DDR2 (Homo sapiens (Human), UniProt Q16832); assay: as above; settings: read-out: Activity of the protein kinase when treated with compound I-1 (% control)
Method: as §2, §3, §4, §5, §6, §7, §8, §9, §10, §11, §12, §13, §14

p38a MAPK = p38a MAPK (Homo sapiens (Human), UniProt Q16539); assay: as above; settings: read-out: Activity of the protein kinase when treated with compound I-1 (% control)
Sequence of p38a MAPK (Q16539 whole entry, looked up): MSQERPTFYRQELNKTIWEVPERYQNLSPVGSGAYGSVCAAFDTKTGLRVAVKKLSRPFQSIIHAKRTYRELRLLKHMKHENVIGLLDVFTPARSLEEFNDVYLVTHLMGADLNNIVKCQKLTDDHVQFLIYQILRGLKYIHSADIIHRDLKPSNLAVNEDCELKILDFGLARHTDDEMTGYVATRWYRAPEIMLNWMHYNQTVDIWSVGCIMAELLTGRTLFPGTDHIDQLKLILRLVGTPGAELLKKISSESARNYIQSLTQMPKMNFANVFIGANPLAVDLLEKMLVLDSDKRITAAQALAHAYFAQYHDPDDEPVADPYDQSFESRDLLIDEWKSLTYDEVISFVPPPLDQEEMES
Method: as §2, §3, §4, §5, §6, §7, §8, §9, §10, §11, §12, §13, §14

BTK [2] = target: T1, BTK; assay: as above; settings: read-out: Activity of the protein kinase when treated with compound I-1 (% control)
Method: as §2, §3, §4, §5, §6, §7, §8, §9, §10, §11, §12, §13, §14

Lck = Lck (Homo sapiens (Human), UniProt P06239); assay: as above; settings: read-out: Activity of the protein kinase when treated with compound I-1 (% control)
Sequence of Lck (P06239 whole entry): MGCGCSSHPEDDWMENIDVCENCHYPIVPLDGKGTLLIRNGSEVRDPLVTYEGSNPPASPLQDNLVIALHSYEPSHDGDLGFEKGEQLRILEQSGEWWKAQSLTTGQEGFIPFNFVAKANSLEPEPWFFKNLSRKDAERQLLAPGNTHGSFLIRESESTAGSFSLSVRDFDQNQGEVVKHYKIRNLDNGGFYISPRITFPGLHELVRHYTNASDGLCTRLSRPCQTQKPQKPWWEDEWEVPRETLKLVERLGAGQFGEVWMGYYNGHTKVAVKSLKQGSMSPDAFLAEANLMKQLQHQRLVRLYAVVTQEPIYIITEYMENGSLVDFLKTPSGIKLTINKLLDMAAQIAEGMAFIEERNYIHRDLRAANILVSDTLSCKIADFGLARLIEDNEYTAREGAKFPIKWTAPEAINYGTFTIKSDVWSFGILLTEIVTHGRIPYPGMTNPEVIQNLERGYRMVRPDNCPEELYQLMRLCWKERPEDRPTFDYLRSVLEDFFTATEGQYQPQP
Method: as §2, §3, §4, §5, §6, §7, §8, §9, §10, §11, §12, §13, §14

EPH-B1 = EPH-B1 (Homo sapiens (Human), UniProt P54762); assay: as above; settings: read-out: Activity of the protein kinase when treated with compound I-1 (% control)
Method: as §2, §3, §4, §5, §6, §7, §8, §9, §10, §11, §12, §13, §14

[3] = 0.1 μM of compound I-1, DMSO control = 100%
[4] = 1 μM of compound I-1, DMSO control = 100%

Sequence of HCK (P08631 whole entry): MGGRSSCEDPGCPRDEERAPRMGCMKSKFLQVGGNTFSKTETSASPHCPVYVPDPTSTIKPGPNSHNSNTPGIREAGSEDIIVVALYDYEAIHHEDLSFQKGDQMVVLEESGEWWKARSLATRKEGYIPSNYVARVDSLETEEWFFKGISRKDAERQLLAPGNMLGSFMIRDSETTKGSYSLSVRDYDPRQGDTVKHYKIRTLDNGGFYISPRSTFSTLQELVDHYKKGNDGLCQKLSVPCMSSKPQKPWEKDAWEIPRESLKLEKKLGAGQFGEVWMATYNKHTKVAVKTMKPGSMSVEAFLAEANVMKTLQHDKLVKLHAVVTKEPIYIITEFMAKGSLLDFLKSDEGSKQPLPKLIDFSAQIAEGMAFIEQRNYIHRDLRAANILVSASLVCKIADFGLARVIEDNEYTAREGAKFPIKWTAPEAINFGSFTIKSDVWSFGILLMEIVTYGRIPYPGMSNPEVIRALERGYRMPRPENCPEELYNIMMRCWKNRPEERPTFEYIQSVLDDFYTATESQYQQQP

## Cc1cccc(Cl)c1Nc1nccn1-c1cc(Nc2cnn(C)c2)ncn1 [Compound I-4]
HCK
  IC50: 3000 nM
BTK [1]
  IC50: > 10000 nM

## COCCOc1ccc(Nc2cc(-n3ccnc3Nc3c(C)cccc3C)ncn2)cc1 [Compound I-3]
HCK
  IC50: 2420 nM
BTK [1]
  IC50: 9980 nM

## COCCOc1ccc(Nc2cc(-n3ccnc3Nc3c(C)cccc3Cl)ncn2)cc1 [Compound I-2]
HCK
  IC50: 307 nM
BTK [1]
  IC50: 1860 nM

## CCN1CCN(c2ccc(Nc3cc(-n4ccnc4Nc4c(C)cccc4C)ncn3)cc2)CC1 [Compound I-1, 6-(2-((2,6-Dimethylphenyl)amino)-1H-imidazol-1-yl)-N-(4-(4-ethylpiperazin-1-yl)phenyl)pyrimidin-4-amine]
FGF-R1; [3]
  remaining activity at 0.1 µM: 67%
FGF-R1; [4]
  remaining activity at 1 µM: 30%
VEG-FR; [3]
  Activity of the protein kinase when treated with compound I-1 (% control): 81 % control
VEG-FR; [4]
  Activity of the protein kinase when treated with compound I-1 (% control): 31 % control
CSK; [3]
  remaining activity at 0.1 µM: 94%
CSK; [4]
  remaining activity at 1 µM: 67%
EPH-A2; [3]
  remaining activity at 0.1 µM: 99%
EPH-A2; [4]
  remaining activity at 1 µM: 59%
BRK; [3]
  remaining activity at 0.1 µM: 74%
BRK; [4]
  remaining activity at 1 µM: 16%
YES1; [3]
  remaining activity at 0.1 µM: 41%
YES1; [4]
  remaining activity at 1 µM: 8%
ABL; [3]
  remaining activity at 0.1 µM: 84%
ABL; [4]
  remaining activity at 1 µM: 48%
Src; [3]
  remaining activity at 0.1 µM: 43%
Src; [4]
  remaining activity at 1 µM: 13%
HER4; [3]
  remaining activity at 0.1 µM: 97%
HER4; [4]
  remaining activity at 1 µM: 76%
TIE2; [3]
  remaining activity at 0.1 µM: 82%
TIE2; [4]
  remaining activity at 1 µM: 85%
DDR2; [3]
  remaining activity at 0.1 µM: 46%
DDR2; [4]
  remaining activity at 1 µM: 12%
p38a MAPK; [3]
  remaining activity at 0.1 µM: 87%
p38a MAPK; [4]
  remaining activity at 1 µM: 28%
BTK [2]; [3]
  remaining activity at 0.1 µM: 85%
BTK [2]; [4]
  remaining activity at 1 µM: 30%
Lck; [3]
  remaining activity at 0.1 µM: 24%
Lck; [4]
  remaining activity at 1 µM: 13%
EPH-B1; [3]
  remaining activity at 0.1 µM: 86%
EPH-B1; [4]
  remaining activity at 1 µM: 16%
HCK
  IC50: 111 nM
BTK [1]
  IC50: 338 nM
